We go through 31 compounds from patent US11578061B2, “Inhibitors of LRRK2 kinase” (Halia Therapeutics, Inc., priority 2021, dated 2023).

recombinant human LRRK2 (catalytic domain only [amino acids 970-2527], GST-tagged), sequence (Q5S007 970-2527): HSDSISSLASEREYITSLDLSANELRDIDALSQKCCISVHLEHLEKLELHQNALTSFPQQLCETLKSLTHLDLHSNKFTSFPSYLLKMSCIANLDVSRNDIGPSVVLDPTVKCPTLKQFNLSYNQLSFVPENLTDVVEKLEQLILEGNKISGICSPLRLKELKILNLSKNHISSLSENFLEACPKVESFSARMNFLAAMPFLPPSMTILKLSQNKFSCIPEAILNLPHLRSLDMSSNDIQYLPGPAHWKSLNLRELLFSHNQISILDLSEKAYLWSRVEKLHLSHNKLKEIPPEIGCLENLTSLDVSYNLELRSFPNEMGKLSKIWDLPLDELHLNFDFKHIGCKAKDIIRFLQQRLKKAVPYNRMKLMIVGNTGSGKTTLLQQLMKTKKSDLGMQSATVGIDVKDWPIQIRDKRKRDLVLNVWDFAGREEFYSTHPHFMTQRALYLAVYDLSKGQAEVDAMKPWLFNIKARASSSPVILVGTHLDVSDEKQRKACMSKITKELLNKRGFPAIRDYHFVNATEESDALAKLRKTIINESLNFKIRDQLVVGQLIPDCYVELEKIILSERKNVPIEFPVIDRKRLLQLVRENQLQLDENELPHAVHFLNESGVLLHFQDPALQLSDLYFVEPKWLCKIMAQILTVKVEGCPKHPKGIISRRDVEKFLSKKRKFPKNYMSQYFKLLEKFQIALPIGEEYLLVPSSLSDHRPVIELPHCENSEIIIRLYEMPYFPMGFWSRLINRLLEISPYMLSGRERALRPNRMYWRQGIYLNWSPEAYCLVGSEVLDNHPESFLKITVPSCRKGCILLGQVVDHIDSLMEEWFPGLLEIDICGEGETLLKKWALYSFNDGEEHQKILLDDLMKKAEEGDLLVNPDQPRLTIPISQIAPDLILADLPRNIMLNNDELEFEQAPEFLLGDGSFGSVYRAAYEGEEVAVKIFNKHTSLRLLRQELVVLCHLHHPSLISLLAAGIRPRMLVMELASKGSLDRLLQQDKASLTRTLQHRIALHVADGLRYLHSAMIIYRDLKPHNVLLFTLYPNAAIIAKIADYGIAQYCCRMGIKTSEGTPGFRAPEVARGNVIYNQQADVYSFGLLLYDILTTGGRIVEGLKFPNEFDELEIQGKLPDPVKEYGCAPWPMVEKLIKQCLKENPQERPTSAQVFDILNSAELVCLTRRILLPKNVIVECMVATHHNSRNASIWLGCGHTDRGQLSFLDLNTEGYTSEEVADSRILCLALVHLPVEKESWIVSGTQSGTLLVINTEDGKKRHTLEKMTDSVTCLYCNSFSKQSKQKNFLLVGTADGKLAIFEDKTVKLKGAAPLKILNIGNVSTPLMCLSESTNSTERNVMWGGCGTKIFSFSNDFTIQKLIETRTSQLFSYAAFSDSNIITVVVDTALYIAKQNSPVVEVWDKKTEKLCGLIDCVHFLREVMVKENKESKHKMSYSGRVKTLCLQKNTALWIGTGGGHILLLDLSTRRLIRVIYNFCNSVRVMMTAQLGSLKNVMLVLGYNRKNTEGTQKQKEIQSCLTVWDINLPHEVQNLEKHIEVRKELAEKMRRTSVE

This assay concerns the target recombinant human LRRK2 (catalytic domain only [amino acids 970-2527], GST-tagged) (Homo sapiens (Human), UniProt Q5S007). The assay is described as follows: LRRK2 Enzymatic Assay. The format is biochemical. Conditions: LRRKtide substrate, [32P]-ATP. The gist of the method: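 GST-tagged catalytic domain (aa 970-2527) at 30 nM with 20 μM LRRKtide in HEPES pH 7.5/MgCl2 buffer, 1% DMSO; compounds (10 μM to 0.5 nM) preincubated 20 min, then [32P]-ATP added for 2 h at room temperature. P81 phosphocellulose capture; activity as % of vehicle, IC50 by curve fit.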
One may read the IC50 as the midpoint of a concentration-inhibition curve. As to `CC(=O)N1CCC(COc2nc(Nc3ccc(N4CCOCC4)cc3)ncc2Cl)C(F)(F)C1` (stereo not shown) [Example 95, 1-(4-(((5-chloro-2-((4-morpholinophenyl)amino)pyrimidin-4-yl)oxy)methyl)-3,3-difluoropiperidin-1-yl)ethan-1-one], the half-inhibitory concentration (IC50) is below 50 nM. `CCO[C@H]1CC[C@@H](COc2nc(Nc3cn(C(C)(C)C#N)nc3C)ncc2F)CC1` [Example 277, 2-(4-((4-(((1s,4s)-4-ethoxycyclohexyl)methoxy)-5-fluoropyrimidin-2-yl)amino)-3-methyl-1H-pyrazol-1-yl)-2-methylpropanenitrile]: the half-inhibitory concentration (IC50) was below 50 nM. In the case of `CC(=O)N[C@H]1CC[C@H](COc2ccnc(Nc3cn(C(C)(C)C#N)nc3C)n2)CC1` [Example 74, N-((1R,4R)-4-(((2-((1-(2-cyanopropan-2-yl)-3-methyl-1H-pyrazol-4-yl)amino)pyrimidin-4-yl)oxy)methyl)cyclo-hexyl)acetamide] it was 50 to 200 nM; in that of `C[C@@H]1CN(c2ccc(Nc3ncc(F)c(OCC4CCS(=O)(=O)CC4)n3)cc2)C[C@H](C)O1` [Example 288, 4-(((2-((4-((2R,6S)-2,6-dimethylmorpholino)phenyl)amino)-5-fluoropyrimidin-4-yl)oxy)methyl)tetrahydro-2H-thiopyran 1,1-dioxide], above 400 nM.

For the compound `CC1(C(=O)N[C@H]2CC[C@H](COc3ccnc(Nc4ccc(N5CCOCC5)cc4)n3)CC2)CC1` [Example 71, 1-methyl-N-((1R,4R)-4-(((2-((4-morpholinophenyl)amino)pyrimidin-4-yl)oxy)methyl)cyclo-hexyl)cyclopropane-1-carboxamide], the IC50 is above 400 nM. In the case of `O[C@H]1CC[C@H](COc2nc(Nc3cnn(C4CCOCC4)c3)ncc2F)CC1` [Example 228, (1R,4R)-4-(((5-fluoro-2-((1-(tetrahydro-2H-pyran-4-yl)-1H-pyrazol-4-yl)amino)pyrimidin-4-yl)oxy)methyl)cyclohexan-1-ol] it was 200 to 400 nM; in that of `CN[C@H]1CC[C@H](COc2ccnc(Nc3cnn(C(C)C)c3)n2)CC1` [Example 33], above 400 nM.

On to `C[C@@H]1CN(c2ccc(Nc3ncc(F)c(OCC4CCC(C#N)CC4)n3)cc2)C[C@H](C)O1` (mixture of isomers) [Example 273, 4-(((2-((4-((2S,6R)-2,6-dimethylmorpholino)phenyl)amino)-5-fluoropyrimidin-4-yl)oxy)methyl)cyclohexane-1-carbonitrile], for which the IC50 is below 50 nM. In the case of `CCn1cc(Nc2ncc(F)c(OC[C@H]3CC[C@H](NC(C)=O)CC3)n2)cn1` [Example 184, N-((1R,4R)-4-(((2-((1-ethyl-1H-pyrazol-4-yl)amino)-5-fluoropyrimidin-4-yl)oxy)methyl)cyclo-hexyl)acetamide] it was below 50 nM; in that of `Cc1nn(C(C)(C)C#N)cc1Nc1ncc(F)c(OC[C@H]2CC[C@H](NC(=O)C(F)(F)F)CC2)n1` [Example 212, N-((1R,4R)-4-(((2-((1-(2-cyanopropan-2-yl)-3-methyl-1H-pyrazol-4-yl)amino)-5-fluoro-pyrimidin-4-yl)oxy)methyl)cyclohexyl)-2,2,2-trifluoro-acetamide], 50 to 200 nM. As for `Cc1nn(C(C)(C)C#N)cc1Nc1ncc(Cl)c(OC[C@H]2CC[C@H](NC(=O)C(F)F)CC2)n1` [Example 100, N-((1R,4R)-4-(((5-chloro-2-((1-(2-cyano-propan-2-yl)-3-methyl-1H-pyrazol-4-yl)amino)pyrimidin-4-yl)oxy)methyl)cyclohexyl)-2,2-difluoro-acetamide], the figure is below 50 nM.

With `O[C@H]1CC[C@H](COc2nc(Nc3cnn(CC(F)(F)F)c3)ncc2F)CC1` [Example 223, (1R,4R)-4-(((5-fluoro-2-((1-(2,2,2-trifluoroethyl)-1H-pyrazol-4-yl)amino)pyrimidin-4-yl)oxy)methyl)cyclohexan-1-ol], the IC50 was 50 to 200 nM. As for `Cc1nn(C(C)(C)C#N)cc1Nc1ncc(F)c(OCC2CCC(C#N)CC2)n1` (racemic) [Example 274, 4-(((2-((1-(2-cyanopropan-2-yl)-3-methyl-1H-pyrazol-4-yl)amino)-5-fluoropyrimidin-4-yl)oxy)methyl)cyclohexane-1-carbonitrile], the figure is below 50 nM; as for `C[C@@H]1CN(c2ccc(Nc3ncc(F)c(OCC45CCC(O)(CC4)CC5)n3)cc2)C[C@H](C)O1` [Example 143, 4-(((2-((4-((2S,6R)-2,6-dimethylmorpholino)phenyl)amino)-5-fluoropyrimidin-4-yl)oxy)methyl)bicyclo[2.2.2]octan-1-ol], 50 to 200 nM. As for `Cc1nn(C(C)(C)C#N)cc1Nc1nccc(OCC2(F)CCN(C)CC2)n1` [Example 60, 2-(4-((4-((4-fluoro-1-methylpiperidin-4-yl)methoxy)pyrimidin-2-yl)amino)-3-methyl-1H-pyrazol-1-yl)-2-methylpropanenitrile], the figure is above 400 nM; as for `Cc1nn(C(C)(C)C#N)cc1Nc1ncc(F)c(OCC2CC(C#N)C2)n1` (single isomer, unassigned) [Example 291, 3-(((2-((1-(2-cyanopropan-2-yl)-3-methyl-1H-pyrazol-4-yl)amino)-5-fluoropyrimidin-4-yl)oxy)methyl)cyclobutane-1-carbonitrile], below 50 nM; as for `Cc1nn(C(C)(C)C#N)cc1Nc1ncc(Cl)c(OCC2COC2)n1` [Example 158, 2-(4-((5-chloro-4-(oxetan-3-ylmethoxy)pyrimidin-2-yl)amino)-3-methyl-1H-pyrazol-1-yl)-2-methylpropanenitrile], 50 to 200 nM. As for `C[C@@H]1CN(c2ccc(Nc3ncc(F)c(OCC4CCNCC4(F)F)n3)cc2)C[C@H](C)O1` (stereo partly drawn) [Example 30, 4-((3,3-difluoropiperidin-4-yl)methoxy)-N-(4-((2S,6R)-2,6-dimethylmorpholino)phenyl)-5-fluoropyrimidin-2-amine], the figure is below 50 nM. Regarding `CNC1CCCC(COc2ccnc(Nc3ccc(N4CCOCC4)cc3)n2)C1` (stereo not shown) [Example 47, 4-((3-(methylamino)cyclo-hexyl)methoxy)-N-(4-morpholinophenyl) pyrimidin-2-amine], the IC50 was 200 to 400 nM. As for `CC(=O)N[C@H]1CC[C@H](COc2nc(Nc3cnn(C4CCOCC4)c3Cl)ncc2F)CC1` [Example 206, N-((1R,4R)-4-(((2-((5-chloro-1-(tetrahydro-2H-pyran-4-yl)-1H-pyrazol-4-yl)amino)-5-fluoropyrimidin-4-yl)oxy)methyl)cyclo-hexyl)acetamide], the figure is below 50 nM; as for `CC(=O)N[C@H]1CC[C@H](COc2nc(Nc3ccc(N4C5CCC4COC5)cc3)ncc2F)CC1` [Example 181, N-((1R,4R)-4-(((2-((4-(3-oxa-8-azabicyclo[3.2.1]octan-8-yl)phenyl)amino)-5-fluoropyrimidin-4-yl)oxy)methyl)cyclo-hexyl)acetamide], below 50 nM; as for `CN[C@H]1CC[C@H](COc2ccnc(Nc3cc(F)c(C(=O)N4CCOCC4)cc3OC)n2)CC1` [Example 34, (2-fluoro-5-methoxy-4-((4-(((1R,4R)-4-(methylamino)cyclo-hexyl)methoxy)py-rimidin-2-yl)amino)phenyl) (morpholino) methanone], 50 to 200 nM. In the case of `O=C(C(F)F)N1CCC(COc2nc(Nc3ccc(N4CCOCC4)cc3)ncc2Cl)CC1` [Example 109, 1-(4-(((5-chloro-2-((4-morpholino-phenyl)amino)pyrimidin-4-yl)oxy)methyl)piperidin-1-yl)-2,2-difluoro-ethan-1-one] it was below 50 nM; in that of `CC(=O)N[C@H]1CC[C@@H](COc2nc(Nc3cn(C(C)(C)C#N)nc3C)ncc2F)C1` [Example 180, N-((1S,3R)-3-(((2-((1-(2-cyanopropan-2-yl)-3-methyl-1H-pyrazol-4-yl)amino)-5-fluoropyrimidin-4-yl)oxy)methyl)cyclo-pentyl)acetamide], below 50 nM; in that of `Cc1nn(C(C)(C)C#N)cc1Nc1ncc(F)c(OCC2CCNCC2F)n1` (single isomer, unassigned) [Example 170, 2-(4-((5-fluoro-4-((3-fluoropiperidin-4-yl)methoxy)pyrimidin-2-yl)amino)-3-methyl-1H-pyrazol-1-yl)-2-methylpropanenitrile], 50 to 200 nM. As for `CCc1nn(C)cc1Nc1ncc(F)c(OC[C@H]2CC[C@H](O)CC2)n1` [Example 233, (1R,4R)-4-(((2-((3-ethyl-1-methyl-1H-pyrazol-4-yl)amino)-5-fluoropyrimidin-4-yl)oxy)methyl)cyclohexan-1-ol], the figure is below 50 nM; as for `CC(=O)N[C@H]1CC[C@@H](COc2nc(Nc3ccc(N4CCOCC4)cc3)ncc2F)C1` [Example 178, N-((1S,3R)-3-(((5-fluoro-2-((4-morpholinophenyl)amino)pyrimidin-4-yl)oxy)methyl)cyclo-pentyl)acetamide], 50 to 200 nM; as for `CC(=O)N[C@H]1CC[C@H](COc2nc(Nc3cn(C(C)(C)C#N)nc3C)ncc2C)CC1` [Example 87, N-((1R,4R)-4-(((2-((1-(2-cyanopropan-2-yl)-3-methyl-1H-pyrazol-4-yl)amino)-5-methylpyrimidin-4-yl)oxy)methyl)cyclo-hexyl)acetamide], below 50 nM.

With `FC(F)CN[C@H]1CC[C@H](COc2nc(Nc3cccc(N4CCOCC4)c3)ncc2Cl)CC1` [Example 107, 5-chloro-4-(((1R,4R)-4-((2,2-difluoro-ethyl)amino)cyclohexyl)methoxy)-N-(3-morpholino-phenyl) pyrimidin-2-amine], the IC50 is below 50 nM. In the case of `N[C@H]1CC[C@H](COc2nc(Nc3ccc(N4CCOCC4)cc3)ncc2F)CC1` [Example 10, 4-(((1R,4R)-4-aminocyclohexyl)methoxy)-5-fluoro-N-(4-morpholinophenyl) pyrimidin-2-amine] it was below 50 nM; in that of `N[C@H]1CC[C@H](COc2ccnc(Nc3ccn(CC(F)F)n3)n2)CC1` [Example 5, 4-(((1R,4R)-4-aminocyclohexyl)methoxy)-N-(1-(2,2-difluoroethyl)-1H-pyrazol-3-yl) pyrimidin-2-amine], 50 to 200 nM.
